Experimental data: patent US10857167B2, “Use of oligosaccharide compositions to enhance weight gain” (Children's Hospital Medical Center, priority 2015, dated 2020)
Entries after “also recorded” stand apart in the source; their conditions may differ.

Assays:
[1] = tested on: TFF3, MUC2, DEFA5, ZO-1, HSPA1A, Reg3b, Reg3g; assay: Expression of genes relative to β-Actin in pre-operative and post-ICR mice; format: in vivo, mouse; conditions: post-ICR with 2′ FL supplementation
[2] = tested on: environmental enteropathy growth model; assay: Environmental enteropathy growth model (control diet or regional-based diet); format: in vivo, mouse; conditions: 2.5 g/L in drinking water from 4 weeks of age
Excerpt: FIG. 41 is a scheme showing a 2′-FL experiment: Environmental Enteropathy. All dams were placed on Regional-based Diet when their pups were 10 days old. At weaning (3 weeks of age), pups were placed on either control diet (CD) or continued on regional-based diet (RBD), which is a malnutrition diet lacking nutrients. At 4 weeks of age, the pups were given either plain drinking water or 2-FL (2.5 g/L) in sipper sacs. Sipper sacs were changed and weighed every other day. Mice and food were weighed twice a week. Stool was collected at weaning, 6 weeks of age, and 8 weeks of age. Mice were sacrificed at 8 weeks of age. To further support the findings of the beneficial effect of 2′ FL supplementation on infant growth, another experiment as outlined in FIG. 41 was performed. All dams were placed on Regional-based Diet when their pups were 10 days old. At weaning (3 wks of age), pups were placed on either control diet (CD) or continued on regional-based diet (RBD), which is a malnutrition diet lacking nutrients. At 4 wks of age, the pups were given either plain drinking water or 2-FL (2.5 g/L) in sipper sacs. Sipper sacs were changed and weighed every other day. Mice and food were weighed twice a week. Stool was collected at weaning, 6 weeks of age, and 8 weeks of age. Mice were sacrificed at 8 weeks of age.

[3] = tested on: small bowel of mice after ileocecal resection (ICR); assay: Histologic markers of adaptation (villus height, crypt depth, bowel circumference, intestinal length) after ICR; format: in vivo, mouse; conditions: for crypt depth, median / intestinal length (corrected), median / small bowel circumference, median / villus height, median: 2′-FL supplemented ICR subgroup, interquartile range in brackets
Procedure: At the time of resection, tissue was obtained to prepare for histologic examination (FIG. 12). No differences in measurements of villus height, crypt depth, and bowel circumference were found at the time of resection. […] Crypts of both post-operative control and 2′ FL supplemented groups were deeper than those of pre-operative tissue. […] Only weights were obtained from non-operated control animals. Resected intestine from operated animals was measured for length then the site of small bowel transection was processed for small bowel contents, histology, and RNA. At the time of experimental completion, small bowel immediately proximal to the site of anastomosis was also harvested for small bowel contents, histology, and RNA from the operated group. Small bowel tissue samples for histology were cut in the longitudinal and transverse section, fixed with 4% paraformaldehyde, mounted in paraffin, and stained with hemotoxylin and eosin. Villous height, crypt depth, and bowel circumference were measured in a blinded manor. At least 10 well-oriented villus and crypt domains were assessed for each sample and two samples were averaged per mouse. The serosal circumference was measured twice per sample with two samples per mouse. The average value per mouse was determined. Measurements were performed using the Nikon Ti-Eclipse with NIS Element Advanced Research version 4.20 (Nikon Inc, NY). […] Intestinal length was compared across groups using the Wilcoxon rank-sum test as values were not normally distributed. Histologic count data was averaged per mouse across two samples and compared by the Wilcoxon rank-sum test. Weight data was analyzed using Stata version 13.0 (StataCorp LP, TX). Remaining morphometric and histologic data were analyzed using GraphPad Prism version 5 (GraphPad Software Inc, CA).

[4] = tested on: mouse model of adaptation following extensive ileocecal resection (ICR); assay: Weight change after ileocecal resection (ICR) in mice; format: in vivo; conditions: for weight / weight gain compared to control after ICR: 56 day experiment, on and beyond postoperative day 21
Excerpt: A mouse model of adaptation following intestinal resection was previously reported. Under the aid of an operating microscope and utilizing sedation with 2% isoflurane, a midline incision was made […] and the bowel was eviscerated (FIG. 7). […] Intestinal continuity was restored by end-to-end anastomosis and the abdomen of mice was closed (FIG. 9). The mice received one dose of intraperitoneal broad-spectrum antibiotics. In particular, C57 Black 6 mice of 8 to 10 weeks in age were subjected to ileocecal resection (FIG. 11). 5 animals were carried to post-operative day 56 in the usual fashion. Seven animals were carried to the same time point but supplemented with 2'Fucosyllactose. 2'FL was added to both liquid diet (LD) and standard diet (SD) with water to achieve a final concentration of 21⁄2 grams per liter. All animals were weighed once daily during the first week then once every other day thereafter. Male C57BL/6 mice (Jackson Labs, Me.) of 8 to 10 weeks of age were weighed and started on an exclusive polymeric formula diet one day prior to experiment start (Jevity 1 Cal, Abbott Nutrition, Columbus, Ohio). All mice were administered one dose of intraperitoneal Zosyn (at approximately 100 mg/kg) on experiment day 0. All animals were grouped by operation status and subgrouped into treatment and control arms (Table 4). Liquid diet was refreshed and weights obtained daily for 7 days then all mice were transitioned to a standard chow diet with access to water. Animals in both groups were weighed every other day and taken to 21 or 56 days for experiment completion. All animal studies were approved by the Cincinnati Children's Hospital Medical Center Institutional Animal Care and Use Committee. Non-operated animals were maintained as described above. Operated animals were taken to the operating room on experimental day 0 and underwent ileocecal resection (ICR) as previously described in […] et al. (2007) American journal of physiology Gastrointestinal and liver physiology 293: G1013-1022. Under the aid of an operating microscope and utilizing sedation with 2% isoflurane, a midline incision was made and the bowel eviscerated. The ileocecal junction was identified and approximately 12 cm of ileum and cecum were resected. Resected small bowel tissue and luminal contents were collected as described below. Intestinal continuity was restored by end-to-end anastomosis and the abdomen was closed (FIG. 28). ICR mice were then assigned to control or treatment subgroups, were administered analgesia with subcutaneous buprenorphine (0.05-0.1 mg/kg) and recovered overnight in a standard neonatal incubator warmed to approximately 38 degrees Celsius. Control (non-operated) animals were maintained as described above. Beginning on experiment day 0, treatment animals were supplemented with 2'-Fucosyllactose. 2'-FL was added to formula then water to a final concentration of 2.5 grams per liter. Formula was refreshed daily and water refreshed every other day. […] Intestinal length was compared across groups using the Wilcoxon rank-sum test as values were not normally distributed. Histologic count data was averaged per mouse across two samples and compared by the Wilcoxon rank-sum test. Weight data was analyzed using Stata version 13.0 (StataCorp LP, TX). Remaining morphometric and histologic data were analyzed using GraphPad Prism version 5 (GraphPad Software Inc, CA).

SMILES: C[C@@H]1O[C@@H](O[C@H]2[C@H](O[C@H]3[C@H](O)[C@@H](O)C(O)O[C@@H]3CO)O[C@H](CO)[C@H](O)[C@@H]2O)[C@@H](O)[C@H](O)[C@@H]1O (some centres unmarked) [2′-FL, 2′-fucosyllactose]
- expression of genes TFF3, DEFA5, HSPA1A, Reg3b, and Reg3g relative to β-Actin [1]: increased expression
- growth (weight change over time) ([2]; control diet): increased growth
- growth (weight change over time) ([2]; regional based diet (malnutrition diet)): did not increase growth
- crypt depth, median ([3]; postoperative day 21): 89 μm
- intestinal length (corrected), median ([3]; postoperative day 21): 35.5 cm
- small bowel circumference, median ([3]; postoperative day 21): 7,133 μm
- villus height, median ([3]; postoperative day 21): 346 μm
- crypt depth, median ([3]; postoperative day 56): 106 μm
- intestinal length (corrected), median ([3]; postoperative day 56): 38.5 cm
- small bowel circumference, median ([3]; postoperative day 56): 9,671 μm
- villus height, median ([3]; postoperative day 56): 405 μm
- histologic markers of adaptation (crypt depth, villus height, bowel circumference) compared to control ([3]; point of weight divergence, 21 days post-ICR): did not alter
- crypt depth compared to control ICR ([3]; postoperative day 21): no difference
- villus height compared to control ICR ([3]; postoperative day 21): no difference
- intestinal length compared to control ICR ([3]; postoperative day 21 and day 56): no difference
- villus height compared to control ICR ([3]; postoperative day 56): appeared longer; also recorded: trended toward a greater height
- crypt depth compared to control ICR ([3]; postoperative day 56 (8 weeks)): increased; also recorded: significantly deeper
- crypt depth compared to control ICR ([3]; postoperative day 56 (8 weeks), listed as 2′ Fl): significantly greater
- crypt depth compared to control ICR ([3]; postoperative day 56 (8 weeks), listed as 2′FL): significantly greater
- bowel circumference compared to control ICR ([3]; postoperative day 56 (Example 2)): no significant difference
- villus height compared to control ICR ([3]; postoperative day 56, listed as 2′-Fl): appeared longer
- duration of the acute histologic response to ICR compared to control ([3]; postoperative day 56 plotted alongside day 21): sustains the acute histologic response over a longer time period; also recorded: sustained the acute increases
- small bowel circumference compared to control ICR ([3]; postoperative days 21 or 56): no statistical difference
- time to return to preoperative weight after ICR ([4]; 2′-FL supplemented ICR subgroup): 3 to 4 weeks
- body weight lost during the first postoperative week ([4]; 2′-FL supplemented ICR subgroup, 2.5 grams per liter in formula then water): approximately 10%
- weight / weight gain compared to control after ICR [4]: improved growth; also recorded: increased weight gain; also recorded: gained more weight
- weight / weight gain compared to control after ICR ([4]; listed as 2′FL): improved late-term weight-gain profile
- weight difference between control and 2′-FL supplemented subgroups ([4]; animals taken to harvest at postoperative day 21): no significant weight difference
- percent of preoperative body weight achieved ([4]; at 56 days after ICR, 2′-FL supplemented ICR subgroup): 110%
